In assay [1] the target is T1, Bromodomain-containing protein 4 (Homo sapiens, UniProt O60885). Briefly: Inhibition of BRD4 BD1 (unknown origin) by FRET assay.
The target of assay [2] is T1, Bromodomain-containing protein 4. Briefly: Inhibition of BRD4 (unknown origin) by FRET assay.

What is called IC50 is the point on the concentration scale where inhibition reaches its midpoint. Higher therefore signals weaker potency.

For `Cc1nnn(C)c1-c1cnc2c3ccc(C(C)(C)O)cc3n([C@@H](c3ccccc3)C3CCOCC3)c2c1`, the concentration for half-maximal inhibition (IC50) in assay [1] is 2.88 nM.

In the case of `CCS(=O)(=O)Nc1ccc(Oc2ccc(F)cc2F)c(-c2cn(C)c(=O)c3[nH]ccc23)c1` [MIVEBRESIB], the IC50 in assay [2] is 1.51 nM.
